# Results taken from article PMC4479019, “Atomistic design of microbial opsin-based blue-shifted optogenetics tools” (Nature Communications, 2015).
# Legend:
# Test in all cases: absorption spectrum of purified protein
# Assay type in all cases: binding
# Details in all cases: covalent (protonated Schiff base); 1 M NaCl, 0.05% DDM, pH 7.0
# [1] = molecular target: T1, HwBR (Haloquadratum walsbyi, UniProt Q18DH8)
# T1 construct: gene bop1
# T1 sequence (Q18DH8 7-254): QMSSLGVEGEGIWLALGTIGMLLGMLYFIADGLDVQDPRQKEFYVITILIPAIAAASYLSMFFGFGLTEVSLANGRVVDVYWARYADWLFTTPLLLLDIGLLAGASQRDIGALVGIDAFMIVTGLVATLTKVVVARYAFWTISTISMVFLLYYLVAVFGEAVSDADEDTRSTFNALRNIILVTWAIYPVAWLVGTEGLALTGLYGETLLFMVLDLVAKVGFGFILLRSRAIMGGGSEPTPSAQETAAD
# [2] = molecular target: T2, AR3 (archaerhodopsin-3) (Halorubrum sodomense, UniProt P96787, M128A/G132A/S151G/A225T)
# T2 construct: gene aop3
# T2 sequence (P96787 7-258 M128A/G132A/S151G/A225T): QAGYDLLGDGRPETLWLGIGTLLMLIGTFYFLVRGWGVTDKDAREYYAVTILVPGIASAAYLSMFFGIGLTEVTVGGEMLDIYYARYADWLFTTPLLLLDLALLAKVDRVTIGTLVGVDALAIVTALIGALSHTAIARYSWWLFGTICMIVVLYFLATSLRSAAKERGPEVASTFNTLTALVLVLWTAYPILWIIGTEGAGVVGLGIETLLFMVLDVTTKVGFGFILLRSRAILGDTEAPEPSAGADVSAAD
# [3] = molecular target: T3, GR (Gloeobacter violaceus, UniProt Q7NP59)
# T3 construct: gene gll0198
# T3 sequence (Q7NP59 1-298): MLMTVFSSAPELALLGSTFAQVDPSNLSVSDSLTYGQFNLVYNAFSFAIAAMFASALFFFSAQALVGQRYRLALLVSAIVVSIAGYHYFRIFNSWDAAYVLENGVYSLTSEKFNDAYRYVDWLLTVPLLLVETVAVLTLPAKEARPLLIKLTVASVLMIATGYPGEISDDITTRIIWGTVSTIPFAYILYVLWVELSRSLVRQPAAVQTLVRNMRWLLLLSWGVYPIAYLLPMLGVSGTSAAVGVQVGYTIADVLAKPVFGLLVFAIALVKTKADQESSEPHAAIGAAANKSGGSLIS
smiles,measurement,setting,value
CC1=C(/C=C/C(C)=C/C=C/C(C)=C/C=O)C(C)(C)CCC1 [all-trans retinal],absorption spectrum of purified protein,[1],Absorption spectra of wild-type and colour variants of HwBR (a) and GR (b)
same,absorption spectrum of purified protein,[2],The M128A/G132A/S151G/A225T and M128A/S151A/A225T mutants slightly reduced the shifts
same,absorption spectrum of purified protein,[3],Absorption spectra of wild-type and colour variants of HwBR (a) and GR (b)
